Measurements from paper PMC9387934, “Randomized single oral dose phase 1 study of safety, tolerability, and pharmacokinetics of Iminosugar UV-4 Hydrochloride (UV-4B) in healthy subjects” (PLoS Neglected Tropical Diseases, 2022).
“And” between values parts separate entries of the source, which are not always exact repeats. Equal values may be shown once.

Assay: Phase 1a single ascending dose study: UV-4 plasma concentrations and PK parameters (LC-MS/MS, noncompartmental)
Assay type: in vivo
Settings: human plasma
Method: UV-4 ((2R,3R,4R,5S)-2-(hydroxymethyl)-1-(9-methoxynonyl)piperidine-3,4,5-triol, also called N-(9’-methoxynonyl)-1-deoxynojirimycin, or MON-DNJ) hydrochloride was evaluated in a first-in-human, randomized, single-center, double-blind, placebo-controlled, parallel group, single ascending dose Phase 1a clinical trial in healthy subjects (Figs 1 and 2, ClinicalTrials.gov Identifier NCT02061358 https://clinicaltrials.gov/ct2/show/NCT02061358). The primary objective was to determine the safety and tolerability of a single-ascending oral dose of UV-4 hydrochloride (Fig 3). […] The secondary objective was to determine PK parameters describing absorption and elimination of UV-4 following a single oral dose of UV-4 hydrochloride. Eight cohorts of eight subjects each were enrolled and completed the study. In each cohort, six subjects received UV-4 as the hydrochloride; two received placebo. Subjects were screened against study eligibility criteria up to four weeks (Days -28 to -2) before admission to the clinic (Day -1). Dosing was performed on an inpatient basis. Subjects remained in clinic for 48 hours post-dosing for PK sample collection and safety assessments and were discharged from the clinic on Day 3. Subjects returned to the clinic on Day 4 for additional safety assessments, then again on Day 9 ± 1 for a final follow-up visit.
Eligible subjects were healthy males and females, age 18–45 years, with a body mass index between 18 and 30 kg/m^2 inclusive and a minimum body weight of 60 kg. Subjects were considered healthy based on medical history, physical exam, vital signs, 12-lead electrocardiogram (ECG), clinical laboratory tests (hematology, blood chemistry, urinalysis), viral serology, and drug and alcohol screening. Male and female subjects of childbearing potential were required to use adequate contraception over the course of the clinical trial. […] Only subjects who met all inclusion and none of the exclusion criteria prior to administration of the investigational product were enrolled into the study (no exemptions were granted). A total of 64 subjects were enrolled (eight cohorts of eight subjects each). In each of the eight cohorts, six subjects were randomized to receive a single dose of UV-4 (3 to 1000 mg, depending on cohort) as the hydrochloride salt, and two subjects to receive placebo. Cohort size of six active subjects was based on analysis that increasing cohort size above six in a first-in-human study gains little in the ability to observe a drug induced event, and results in observing more events that are not related to study drug. Two of the eight subjects in each cohort (sentinel subjects; one active and one placebo) received their doses at least 48 h before the remaining subjects in each cohort.
On each day of use, bulk drug substance (UV-4B for solubilization, SAI Life Sciences Ltd. Telangana, India) was removed from a single-use container, weighed at the study center, and solubilized in 20 mL sterile water for injection (SWFI) (Hospira Inc. Illinois, United States of America). Weight of solid drug substance was converted to dose of UV-4 by applying purity and salt correction factor per pharmacy manual when preparing the dosing solution. UV-4B solution was administered orally with 10 mL of taste-masking agent, OraSweet-SF (Paddock Laboratories LLC, Minneapolis, United States of America) in a total volume of 30 mL, to assist in maintaining study blinding. Placebo was SWFI (20 mL) plus OraSweet-SF (10 mL). Concentrations and doses were calculated and expressed as the active free base form, UV-4. This methodology is consistent with USP<1121>, which recommends that the strength of a drug product or preparation is expressed in terms of the active moiety. Following consumption of active or placebo solution, the dosing container was rinsed with 50 mL of tap water also consumed by subjects. […]

## COCCCCCCCCCN1C[C@H](O)[C@@H](O)[C@H](O)[C@H]1CO [UV4]
Cohort 2, nominal day 1, nominal hour 0
  CONCENTRATION UV4: <LLOQ (0.500) ng/mL
Cohort 3, nominal day 1, nominal hour 0
  CONCENTRATION UV4: <LLOQ (0.500) ng/mL
Cohort 4, nominal day 1, nominal hour 0
  CONCENTRATION UV4: <LLOQ (0.500) ng/mL
Cohort 4, nominal day 1, nominal hour 0, individual subjects
  CONCENTRATION UV4: <LLOQ (0.500) ng/mL and 0.569 ng/mL and 1.02 ng/mL
Cohort 4, nominal day 1, nominal hour 0, subjects with all post-dose samples <LLOQ (treatment arm not given)
  CONCENTRATION UV4: 0.657 ng/mL
Cohort 4, nominal day 1, nominal hour 0.5
  CONCENTRATION UV4: <LLOQ (0.500) ng/mL
Cohort 4, nominal day 1, nominal hour 0.5, individual subjects
  CONCENTRATION UV4: 439 ng/mL and 598 ng/mL and 942 ng/mL and 1250 ng/mL and 160 ng/mL
Cohort 4, nominal day 1, nominal hour 0.5, subjects with all post-dose samples <LLOQ (treatment arm not given)
  CONCENTRATION UV4: <LLOQ (0.500) ng/mL
Cohort 4, nominal day 1, nominal hour 1
  CONCENTRATION UV4: <LLOQ (0.500) ng/mL
Cohort 4, nominal day 1, nominal hour 1, individual subjects
  CONCENTRATION UV4: 589 ng/mL and 571 ng/mL and 858 ng/mL and 762 ng/mL and 642 ng/mL
Cohort 4, nominal day 1, nominal hour 1, subjects with all post-dose samples <LLOQ (treatment arm not given)
  CONCENTRATION UV4: <LLOQ (0.500) ng/mL
Cohort 4, nominal day 1, nominal hour 1.5
  CONCENTRATION UV4: <LLOQ (0.500) ng/mL
Cohort 4, nominal day 1, nominal hour 1.5, individual subjects
  CONCENTRATION UV4: 754 ng/mL and 487 ng/mL and 860 ng/mL and 621 ng/mL and 699 ng/mL
Cohort 4, nominal day 1, nominal hour 1.5, subjects with all post-dose samples <LLOQ (treatment arm not given)
  CONCENTRATION UV4: <LLOQ (0.500) ng/mL
Cohort 4, nominal day 1, nominal hour 2
  CONCENTRATION UV4: <LLOQ (0.500) ng/mL
Cohort 4, nominal day 1, nominal hour 2, individual subjects
  CONCENTRATION UV4: 583 ng/mL and 406 ng/mL and 636 ng/mL and 479 ng/mL and 610 ng/mL
Cohort 4, nominal day 1, nominal hour 2, subjects with all post-dose samples <LLOQ (treatment arm not given)
  CONCENTRATION UV4: <LLOQ (0.500) ng/mL
Cohort 4, nominal day 1, nominal hour 2.5
  CONCENTRATION UV4: <LLOQ (0.500) ng/mL
Cohort 4, nominal day 1, nominal hour 2.5, individual subjects
  CONCENTRATION UV4: 516 ng/mL and 439 ng/mL and 447 ng/mL and 365 ng/mL and 519 ng/mL
Cohort 4, nominal day 1, nominal hour 2.5, subjects with all post-dose samples <LLOQ (treatment arm not given)
  CONCENTRATION UV4: <LLOQ (0.500) ng/mL
Cohort 4, nominal day 1, nominal hour 3
  CONCENTRATION UV4: <LLOQ (0.500) ng/mL
Cohort 4, nominal day 1, nominal hour 3, individual subjects
  CONCENTRATION UV4: 495 ng/mL and 428 ng/mL and 393 ng/mL and 327 ng/mL and 437 ng/mL
Cohort 4, nominal day 1, nominal hour 3, subjects with all post-dose samples <LLOQ (treatment arm not given)
  CONCENTRATION UV4: <LLOQ (0.500) ng/mL
Cohort 4, nominal day 1, nominal hour 4
  CONCENTRATION UV4: <LLOQ (0.500) ng/mL
Cohort 4, nominal day 1, nominal hour 4, individual subjects
  CONCENTRATION UV4: 368 ng/mL and 298 ng/mL and 302 ng/mL and 236 ng/mL and 338 ng/mL
Cohort 4, nominal day 1, nominal hour 4, subjects with all post-dose samples <LLOQ (treatment arm not given)
  CONCENTRATION UV4: <LLOQ (0.500) ng/mL
Cohort 4, nominal day 1, nominal hour 6
  CONCENTRATION UV4: <LLOQ (0.500) ng/mL
Cohort 4, nominal day 1, nominal hour 6, individual subjects
  CONCENTRATION UV4: 184 ng/mL and 187 ng/mL and 216 ng/mL and 141 ng/mL and 189 ng/mL
Cohort 4, nominal day 1, nominal hour 6, subjects with all post-dose samples <LLOQ (treatment arm not given)
  CONCENTRATION UV4: <LLOQ (0.500) ng/mL
Cohort 4, nominal day 1, nominal hour 9
  CONCENTRATION UV4: <LLOQ (0.500) ng/mL
Cohort 4, nominal day 1, nominal hour 9, individual subjects
  CONCENTRATION UV4: 101 ng/mL and 118 ng/mL and 128 ng/mL and 70.4 ng/mL and 77.3 ng/mL
Cohort 4, nominal day 1, nominal hour 9, subjects with all post-dose samples <LLOQ (treatment arm not given)
  CONCENTRATION UV4: <LLOQ (0.500) ng/mL
Cohort 4, nominal day 1, nominal hour 12
  CONCENTRATION UV4: <LLOQ (0.500) ng/mL
Cohort 4, nominal day 1, nominal hour 12, individual subjects
  CONCENTRATION UV4: 54.3 ng/mL and 66.4 ng/mL and 79.7 ng/mL and 42.1 ng/mL and 37.6 ng/mL
Cohort 4, nominal day 1, nominal hour 12, subjects with all post-dose samples <LLOQ (treatment arm not given)
  CONCENTRATION UV4: <LLOQ (0.500) ng/mL
Cohort 4, nominal day 1, nominal hour 18
  CONCENTRATION UV4: <LLOQ (0.500) ng/mL
Cohort 4, nominal day 1, nominal hour 18, individual subjects
  CONCENTRATION UV4: 18.1 ng/mL and 34.0 ng/mL and 43.3 ng/mL and 16.6 ng/mL
Cohort 4, nominal day 1, nominal hour 18, subjects with all post-dose samples <LLOQ (treatment arm not given)
  CONCENTRATION UV4: <LLOQ (0.500) ng/mL
Cohort 4, nominal day 2, nominal hour 24, individual subjects
  CONCENTRATION UV4: 12.5 ng/mL and 26.6 ng/mL and 30.8 ng/mL and 10.2 ng/mL
Cohort 4, nominal day 2, nominal hour 24, subjects with all post-dose samples <LLOQ (treatment arm not given)
  CONCENTRATION UV4: <LLOQ (0.500) ng/mL
Cohort 4, nominal day 2, nominal hour 36, individual subjects
  CONCENTRATION UV4: 4.31 ng/mL and 11.5 ng/mL and 12.0 ng/mL and 3.22 ng/mL
Cohort 4, nominal day 2, nominal hour 36, subjects with all post-dose samples <LLOQ (treatment arm not given)
  CONCENTRATION UV4: <LLOQ (0.500) ng/mL
Cohort 4, nominal day 3, nominal hour 48, individual subjects
  CONCENTRATION UV4: 2.04 ng/mL and 4.82 ng/mL and 6.34 ng/mL and 1.52 ng/mL
Cohort 4, nominal day 3, nominal hour 48, subjects with all post-dose samples <LLOQ (treatment arm not given)
  CONCENTRATION UV4: <LLOQ (0.500) ng/mL
